Key:
Assay in all cases: AUC of viability dose-response curve (% viability x log10 dose units); higher = less sensitive
Conditions in all cases: 48 h
[1] = system: NOMO1
Method in brief: (§1)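 Library compounds in DMSO were applied for 48 h at 37°C at 11 threefold doses (47 μM to 0.79 nM) to medium-adapted leukemia cells in 1536-well plates holding 500 or 1000 cells/well. Luminescence from CellTiter-Glo One was normalised plate by plate against DMSO and cell-free wells. Area under the curve came from trapezoidal integration of a log-logistic fit, after scaling curves that rose above full viability and discarding those that failed quality control. The fit had four parameters and used log10 doses.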

[2] = system: SEM cells
Method in brief: as §1

[3] = system: P12-Ichikawa
Method in brief: as §1

[4] = RPMI 5 mM glucose + 10% dialyzed FBS

| Structure (SMILES) | AUC of viability dose-response curve ([1]; HPLM + 10% dialyzed FBS) | AUC of viability dose-response curve ([1]; RPMI 5 mM glucose + 10% FBS) | AUC of viability dose-response curve [1, 4] | AUC of viability dose-response curve ([2]; HPLM + 10% dialyzed FBS) | AUC of viability dose-response curve ([2]; RPMI 5 mM glucose + 10% FBS) | AUC of viability dose-response curve [2, 4] | AUC of viability dose-response curve ([3]; HPLM + 10% dialyzed FBS) | AUC of viability dose-response curve ([3]; RPMI 5 mM glucose + 10% FBS) | AUC of viability dose-response curve [3, 4] |
| --- | --- | --- | --- | --- | --- | --- | --- | --- | --- |
| CN(C)c1ccc(Nc2nc(N)n(C(=O)c3c(F)cccc3F)n2)cc1 | 452 | 465 | 459 | 396 | 361 | 370 | – | – | – |
| N[C@@H](CC(=O)N1CCn2c(nnc2C(F)(F)F)C1)Cc1cc(F)c(F)cc1F | 451 | 417 | 461 | 448 | 453 | 449 | 463 | 453 | 445 |
| Cc1[nH]c(/C=C2\C(=O)Nc3ccc([S+](=O)([O-])Cc4c(Cl)cccc4Cl)cc32)c(C)c1C(=O)N1CCC[C@@H]1CN1CCCC1 | 435 | 438 | 432 | 370 | 394 | 361 | 455 | 456 | 430 |
| COc1cc2ncnc(Nc3cccc(Br)c3)c2cc1OC | 475 | 447 | 460 | 447 | 460 | 448 | 451 | 462 | 464 |
| Cc1ncc([N+](=O)[O-])n1CCO | 467 | 462 | 461 | 467 | 477 | 449 | 477 | 472 | 469 |
| CC(C)(C)NC(=O)[C@H]1CC[C@H]2[C@@H]3CC[C@H]4NC(=O)\C=C/[C@]4(C)[C@H]3CC[C@]12C | 382 | 365 | 383 | 449 | 457 | 459 | 421 | 421 | 450 |
| Cc1cn(CCN2CCN(c3ccccc3-c3cc(C#N)cc(C(=O)NCCCN4CCCC4)c3)CC2)c2ccccc12 | 406 | 424 | 421 | 407 | 401 | 424 | 402 | 409 | 409 |
| CNCC(O)C(O)C(O)C(O)CO.O=C(O)c1ccc(-c2cc3cccnc3c(-c3ccc4nonc4c3)n2)cc1 | 467 | 464 | 469 | 472 | 472 | 459 | 473 | 470 | 468 |
| CN(C)C[C@@H]1CC[N]2C=C(C3=C2C=CC=C3)C/4=C(/C(=O)NC4=O)C5=C[N](CCO1)C6=C5C=CC=C6 | 443 | 423 | 425 | 391 | 412 | 393 | 458 | 453 | 459 |
| CN[S+](=O)([O-])CCc1ccc2[nH]cc(C3CCN(C)CC3)c2c1 | 454 | 435 | 450 | 428 | 452 | 432 | 460 | 460 | 466 |
| COC1=CC=C(C=C1)C2CC(=N/N2C3=CC=C(C=C3)[S+](N)([O-])=O)\C4=CC=CC=C4 (stereo not drawn) | 330 | 355 | 337 | 323 | 293 | 282 | 387 | 354 | 340 |
| C[C@@H]1CC[C@@]2(OC1)OC1CC3C4CC=C5CC(O)CCC5(C)C4CCC3(C)C1[C@@H]2C (stereo partly drawn) | 428 | 402 | 407 | 444 | 394 | 415 | 419 | 453 | 444 |
| O=C1CCc2ccc(OCCCCN3CCN(c4cccc(Cl)c4Cl)CC3)cc2N1 | 449 | 433 | 438 | – | – | – | 473 | 471 | 449 |
| COc1cc([C@@H]2c3cc4c(cc3[C@@H](O[C@@H]3O[C@@H]5CO[C@@H](c6cccs6)O[C@H]5[C@H](O)[C@H]3O)[C@H]3COC(=O)[C@H]23)OCO4)cc(OC)c1O | – | – | – | 329 | 319 | 284 | – | – | – |
| N#CC(=C(/N)Sc1ccccc1N)/C(C#N)=C(\N)Sc1ccccc1N | 436 | 473 | 444 | 452 | 444 | 410 | 474 | 469 | 472 |
| CCN(CC)CCN1C(=O)\C(=N/C2=CC=CC=C12)CC3=CC=C(OC)C=C3 | 472 | 474 | 468 | – | – | – | 470 | 465 | 460 |
| C=CCn1c(=O)c2cnc(Nc3ccc(N4CCN(C)CC4)cc3)nc2n1-c1cccc(C(C)(C)O)n1 | 310 | 338 | 316 | 299 | 301 | 270 | 336 | 362 | 354 |
| CN(C)CCCNC(=O)c1ccc(-c2cc(O)c3ncccc3c2)cc1 | 458 | 434 | 463 | 443 | 442 | 445 | 467 | 459 | 450 |
| COC(=O)[C@@H](N)CCCNC(=N)N[N+](=O)[O-] | 467 | 427 | 461 | 426 | 444 | 432 | 452 | 462 | 452 |
| CCNC(=O)[C@H]1O[C@@H](n2cnc3c(N)nc(NCCc4ccc(CCC(=O)O)cc4)nc32)[C@H](O)[C@@H]1O | 458 | 437 | 442 | 470 | 421 | 469 | 465 | 456 | 462 |
| COc1ccc(Nc2cc(-c3cnc(N)nc3)nc(N3CCOCC3)n2)cn1 | 373 | 375 | 361 | 398 | 418 | 389 | 433 | 387 | 399 |
| CO[C@H]1C[C@@H]2CC[C@@H](C)[C@@](O)(O2)C(=O)C(=O)N2CCCC[C@H]2C(=O)O[C@H]([C@H](C)C[C@@H]2CC[C@@H](OCCO)[C@H](OC)C2)CC(=O)[C@H](C)/C=C(/C)[C@@H](O)[C@@H](OC)C(=O)[C@H](C)C[C@H](C)\C=C/C=C\C=C/1C | 393 | 421 | 370 | 240 | 234 | 233 | 420 | 329 | 362 |
| COC[C@H]1OC(=O)C2=COC3=C2[C@@]1(C)\C4=C(\[C@@H]5CC[C@H](O)[C@@]5(C)C[C@H]4OC(C)=O)C3=O | 440 | 466 | 458 | – | – | – | – | – | – |
| Cc1ccc(C(=O)c2cc(O)c(O)c([N+](=O)[O-])c2)cc1 | 447 | 424 | 456 | 435 | 466 | 434 | 468 | 449 | 434 |

| Structure (SMILES) | AUC of viability dose-response curve ([1]; HPLM + 10% dialyzed FBS) | AUC of viability dose-response curve ([1]; RPMI 5 mM glucose + 10% FBS) | AUC of viability dose-response curve [1, 4] | AUC of viability dose-response curve ([2]; HPLM + 10% dialyzed FBS) | AUC of viability dose-response curve ([2]; RPMI 5 mM glucose + 10% FBS) | AUC of viability dose-response curve [2, 4] | AUC of viability dose-response curve ([3]; HPLM + 10% dialyzed FBS) | AUC of viability dose-response curve ([3]; RPMI 5 mM glucose + 10% FBS) | AUC of viability dose-response curve [3, 4] |
| --- | --- | --- | --- | --- | --- | --- | --- | --- | --- |
| O=C1NC(=O)/C(=C/c2cccc(C(F)(F)F)c2)S1 | 448 | 458 | 463 | 463 | 463 | 467 | 471 | 466 | 453 |
| C[N+](C)([O-])CCNc1ccc(NCC[N+](C)(C)[O-])c2c1C(=O)c1c(O)ccc(O)c1C2=O | 383 | 365 | 391 | 298 | 272 | 281 | 354 | 302 | 305 |
| Nc1nc(OCc2ccccc2)c2nc[nH]c2n1 | 462 | 459 | 465 | 452 | 429 | 454 | 472 | 470 | 471 |
| CN1C(=O)/C=C(/NCCN(CCO)CCCC2=CC=C(C=C2)[N+]([O-])=O)N(C)C1=O | 463 | 473 | 443 | 463 | 450 | 454 | 447 | 443 | 441 |
| Cc1cc(Cl)ccc1OCCCC(=O)NO | 438 | 428 | 444 | 411 | 418 | 403 | 400 | 380 | 336 |
| CN(C)CC/C=C1/c2ccccc2COc2ccc(CC(=O)O)cc21 | 466 | 437 | 453 | 448 | 454 | 449 | 462 | 467 | 461 |
| COc1ccc2c(c1OC)CN1CCc3cc4c(cc3C1C2)OCO4 (stereo not drawn) | 322 | 330 | 331 | 288 | 263 | 271 | 356 | 316 | 311 |
| CC(C)(C)NC(=O)[C@@H]1CN(Cc2cccnc2)CCN1C[C@@H](O)C[C@@H](Cc1ccccc1)C(=O)N[C@H]1c2ccccc2C[C@H]1O.O=S(=O)(O)O | 472 | 461 | 442 | 439 | 455 | 454 | 463 | 463 | 455 |
| Cc1ccc(-c2ncn(-c3ccc(Nc4nccc(-c5cccc(N6CCOCC6)c5)n4)cc3)n2)cn1 | – | – | – | 229 | 226 | 217 | 259 | 244 | 235 |
| CC(C)NCC(O)c1ccc(NS(C)(=O)=O)cc1 (stereo not drawn) | 460 | 447 | 461 | 466 | 447 | 468 | 464 | 472 | 457 |
| CC(C)NCC(O)COc1ccc(CCOCC2CC2)cc1 (stereo not drawn) | 427 | 453 | 448 | 470 | 458 | 468 | 474 | 469 | 461 |
| CCCCCCCCCCCCCCCCCCOP(=O)([O-])OC1CC[N+](C)(C)CC1 | 469 | 470 | 467 | 455 | 468 | 442 | 470 | 462 | 465 |
| O=[N+]([O-])c1cnc(Sc2nnc(O)n2-c2ccc3c(c2)OCCO3)s1 | 376 | 353 | 375 | 341 | 342 | 331 | 390 | 356 | 337 |
| CC1(C)CC(O)CC(C)(C)N1[O] | 452 | 472 | 472 | – | – | – | 464 | 459 | 459 |
| O=C(CCCCCCC(=O)Nc1ccccc1)NO | 406 | 412 | 427 | 370 | 372 | 369 | 378 | 368 | 367 |
| C[S+]([O-])c1ccc(-c2nc(-c3ccc(F)cc3)c(-c3ccncc3)[nH]2)cc1 (stereo not drawn) | 358 | 357 | 334 | 324 | 314 | 324 | 380 | 359 | 367 |
| COc1cc(OC)c(NC(=O)Nc2cc(C)on2)cc1Cl | 464 | 442 | 417 | 467 | 397 | 453 | 463 | 465 | 463 |
| CN(C)CCN(Cc1ccc(Cl)cc1)c1ccccn1.Cl | 419 | 430 | 418 | 404 | 456 | 452 | 462 | 410 | 391 |
| CCCCN(CCCC)C(=O)CN1C[C@H](c2ccc3c(c2)OCO3)[C@@H](C(=O)O)[C@@H]1c1ccc(OC)cc1 | 457 | 470 | 464 | 408 | 427 | 432 | – | – | – |
| CCOC1=CC(=CC=C1C/2=N/[C@@](C)(C3=CC=C(Cl)C=C3)[C@](C)(N2C(=O)N4CCN(CC4)CC(=O)N5CCOCC5)C6=CC=C(Cl)C=C6)C(C)(C)C | – | – | – | 436 | 432 | 439 | 465 | 461 | 443 |
| NCC(=O)Nc1ccc(-n2nc(C(F)(F)F)cc2-c2ccc3c(ccc4ccccc43)c2)cc1 | 458 | 462 | 447 | 460 | 457 | 424 | – | – | – |
| N\C1=N\C2=C(N=C[N]2COC(CO)CO)C(=O)N1 | 445 | 449 | 448 | 444 | 387 | 449 | – | – | – |
| OC(COC1=C2C(=O)\C=C(/OC2=CC=C1)C([O-])=O)COC3=C4C(=O)\C=C(/OC4=CC=C3)C([O-])=O | 435 | 368 | 394 | – | – | – | – | – | – |

— the supplement of paper PMC11451515
